# Source: patent publication US8012967B2, “Minor groove binders” (University of Strathclyde, priority 2006, dated 2011)
# Read-outs that look alike come from different tables or passages of the source.
# What was measured:
# [1] = tested on: Staphylococcus aureus Strain 1 (BSAC04(1)) (Clinical isolate from Glasgow Royal Infirmary); test: MIC, Staphylococcus aureus Strain 1; assay type: cell-based; settings: Staphylococcus aureus, read-out: Minimum inhibitory concentrations (MICs), S aureus 1
# Outline: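 Broth microdilution in Mueller-Hinton Broth: test sample at 200 μg/ml working concentration, serially doubled across rows, incubated at 37° C. MIC taken from the colour pattern, with sterility and growth controls included.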
# [2] = tested on: Mycobacter fortuitum (NCTC 10394); test: MIC, Mycobacter fortuitum; assay type: cell-based; settings: Mycolicibacterium fortuitum, NCTC10394, read-out: Minimum inhibitory concentrations (MICs), M. fortuitum
# Experimental: The effects of compounds of the invention in relation to inhibiting the growth of various microorganisms was determined using methods known to those skilled in the art, for example in vitro methods as described in J. Med. Chem. 47, 2133-2156 (2004) and in vivo methods as described in J. Med. Microbiol. 46, 208-213 (1997), the disclosures of which documents are hereby incorporated by reference. In particular, minimum inhibitory concentrations (MICs) against microorganisms (e.g. S. Aureus, Streptococcus faecalis, Aspergillus niger, Candida albicans or Mycobacterium fortuitum) for compounds of the invention may be measured using procedures such as those described in A. J. Drummond and […] development of microbiological methods for phytochemical screening” Recent Res. Devel. […] The test wells on each 96 well microtitre plate were initially inoculated with culture medium (100 μL) using Mueller-Hinton Broth for antibacterial assays and Sabouraud Broth for antifungal assays. A solution of each test sample (100 μL) was added to one row of each plate and a series of doubling dilutions made for successive rows. Incubation was at 37° C. for antibacterial assay and 25° C. for antifungal assay. […] From the observed pattern of colour, the MIC was determined. All tests included sterility and growth controls.
# [3] = tested on: clinical strains of S. aureus in the Scottish Clinical Isolates Collection; test: MIC against collected clinical strains of S. aureus (BSAC03/04/05 (1)-(10)); assay type: cell-based, Staphylococcus aureus; settings: for MIC: Staphylococcus aureus, read-out: Minimum inhibitory concentrations (MICs)
# Text: In particular, minimum inhibitory concentrations (MICs) against microorganisms (e.g. S. Aureus, Streptococcus faecalis, Aspergillus niger, Candida albicans or Mycobacterium fortuitum) for compounds of the invention may be measured using procedures such as those described in A. J. Drummond and R. D. Waigh “The development of microbiological methods for phytochemical screening” Recent Res. Devel. Phytochem. 4, 143-152 (2000), the disclosures of which document are hereby incorporated by reference.
# Sample dilutions were typically prepared by dissolving the test sample (2 mg) in sterile water (10 mL) to provide a working concentration of 200 μg/ml. The test wells on each 96 well microtitre plate were initially inoculated with culture medium (100 μL) using Mueller-Hinton Broth for antibacterial assays and Sabouraud Broth for antifungal assays. A solution of each test sample (100 μL) was added to one row of each plate and a series of doubling dilutions made for successive rows. Incubation was at 37° C. for antibacterial assay and 25° C. for antifungal assay. […] From the observed pattern of colour, the MIC was determined. All tests included sterility and growth controls.
# BSAC03/04/05 (1)-(10) refer to collected clinical strains of S. aureus in the Scottish Clinical Isolates Collection.
# [4] = tested on: Candida albicans (NCPF3179); test: MIC, Candida albicans; assay type: cell-based; settings: Candida albicans, NCPF3179, read-out: Minimum inhibitory concentrations (MICs), C. albicans
# [5] = tested on: Staphylococcus aureus Strain 2 (NCTC 6571); test: MIC, Staphylococcus aureus Strain 2; assay type: cell-based; settings: Staphylococcus aureus, NCTC6571, read-out: Minimum inhibitory concentrations (MICs), S. aureus 2
# Outline: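 Broth microdilution with doubling dilutions of compound in Mueller-Hinton Broth, incubated at 37° C. MIC read from the colour pattern in the wells. Sterility and growth controls included.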
# [6] = value in parentheses, na = not active
structure (smiles),measurement,setting,value
"Cn1cc(NC(=O)c2cc(NC(=O)c3ccc(/C=C/c4cnc5ccccc5c4)cc3)cn2C)cc1C(=O)NCCN1CCOCC1 [Example 2, 1-Methyl-4-({[1-methyl-4-({4-[(E)-2-(3-quinolinyl)ethenyl]benzoyl}amino)-1H-pyrrol-2-yl]carbonyl}amino)-N-[2-(4-morpholinyl)ethyl]-1H-pyrrole-2-carboxamide]",MIC,[1]; [6],0.12 µg/mL
same,MIC,[1]; value outside parentheses,0.16 µM
same,MIC,[2]; [6],50 µg/mL
same,MIC,[2]; value outside parentheses,67 µM
same,MIC,[3]; S. aureus BSAC culture year 2003 number 1,0.25 µg/mL
same,MIC,[3]; S. aureus BSAC culture year 2003 number 2,0.25 µg/mL
same,MIC,[3]; S. aureus BSAC culture year 2003 number 3,0.25 µg/mL
same,MIC,[3]; S. aureus BSAC culture year 2003 number 4,0.12 µg/mL
same,MIC,[3]; S. aureus BSAC culture year 2003 number 5,0.12 µg/mL
same,MIC,[3]; S. aureus BSAC culture year 2003 number 6,0.12 µg/mL
same,MIC,[3]; S. aureus BSAC culture year 2003 number 7,0.12 µg/mL
same,MIC,[3]; S. aureus BSAC culture year 2003 number 8,0.06 µg/mL
same,MIC,[3]; S. aureus BSAC culture year 2003 number 9,0.25 µg/mL
same,MIC,[3]; S. aureus BSAC culture year 2003 number 10,0.25 µg/mL
same,MIC,[3]; S. aureus BSAC culture year 2004 number 1,0.25 µg/mL
same,MIC,[3]; S. aureus BSAC culture year 2004 number 2,0.5 µg/mL
same,MIC,[3]; S. aureus BSAC culture year 2004 number 3,0.5 µg/mL
same,MIC,[3]; S. aureus BSAC culture year 2004 number 4,0.25 µg/mL
same,MIC,[3]; S. aureus BSAC culture year 2004 number 5,0.12 µg/mL
same,MIC,[3]; S. aureus BSAC culture year 2004 number 6,0.25 µg/mL
same,MIC,[3]; S. aureus BSAC culture year 2004 number 7,0.12 µg/mL
same,MIC,[3]; S. aureus BSAC culture year 2004 number 8,0.25 µg/mL
same,MIC,[3]; S. aureus BSAC culture year 2004 number 9,0.12 µg/mL
same,MIC,[3]; S. aureus BSAC culture year 2004 number 10,0.12 µg/mL
same,MIC,[3]; S. aureus BSAC culture year 2005 number 1,0.25 µg/mL
same,MIC,[3]; S. aureus BSAC culture year 2005 number 2,1 µg/mL
same,MIC,[3]; S. aureus BSAC culture year 2005 number 3,0.12 µg/mL
same,MIC,[3]; S. aureus BSAC culture year 2005 number 4,0.25 µg/mL
same,MIC,[3]; S. aureus BSAC culture year 2005 number 5,0.25 µg/mL
same,MIC,[3]; S. aureus BSAC culture year 2005 number 6,0.12 µg/mL
same,MIC,[3]; S. aureus BSAC culture year 2005 number 7,0.25 µg/mL
same,MIC,[3]; S. aureus BSAC culture year 2005 number 8,0.5 µg/mL
same,MIC,[3]; S. aureus BSAC culture year 2005 number 9,0.25 µg/mL
same,MIC,[3]; S. aureus BSAC culture year 2005 number 10,0.12 µg/mL
same,microbicidal activity against a number of different strains of Staphylococcus aureus,[3]; result in words,displayed microbicidal activity
same,MIC,[4]; [6],25 µg/mL
same,MIC,[4]; value outside parentheses,33.5 µM
same,MIC,[5]; [6],0.25 µg/mL
same,MIC,[5]; value outside parentheses,0.32 µM
